The record followed here is US7781439B2, “Pyrazolopyrimidines” (Bayer CropScience AG, priority 2005, dated 2010).

Marks after values point to notes of the source that are not given here.

The first data set in a line: log P determination. The class given is physicochemical. To be noted: EEC Directive 79/831 Annex V. A8 by HPLC (gradient method, acetonitrile/0.1% aqueous phosphoric acid).
As for `CC(C)C(C)Nc1c(-c2c(Cl)cc(OC(F)(F)F)cc2Cl)c(Cl)nc2c(C(=O)NS(C)(=O)=O)cnn12` (racemic) [compound 1198], the log p stood at 4.85.

Still in this data set, the particulars now being: intermediates of formula drawing 23, table.
In the case of `COC(=O)c1cnn2c(NC(C)C(C)C)c(-c3c(F)cc(F)cc3F)c(Cl)nc12` (centres unmarked), the log P (commonly a log measure of how a compound divides between an organic and an aqueous phase) stood at 4.05.
Take `COC(=O)c1cnn2c(NC(C)C(C)(C)C)c(-c3c(F)cc(F)cc3F)c(Cl)nc12` (centres unmarked): the log partition coefficient (log P) was determined as 4.93.
In the case of `COC(=O)c1cnn2c(N3CCC(C)CC3)c(-c3c(F)cccc3Cl)c(Cl)nc12` [(CH2—CH2—CHCH3—CH2—CH2), 2-Cl-6-F-phenyl], the “log P” value came to 4.61.
Turning to `COC(=O)c1cnn2c(NC(C)C(F)(F)F)c(-c3c(F)cc(F)cc3F)c(Cl)nc12` (centres unmarked) [CH(CH3)(CF3), H, 2,4,6-trifluorophenyl], the “log P” value is 3.53.
Consider `COC(=O)c1cnn2c(NC(C)C(F)(F)F)c(-c3ccc(F)cc3Cl)c(Cl)nc12` (centres unmarked) [CH(CH3)(CF3), H, 2-Cl-4-F-phenyl], for which the “log P” value was 3.75.
Regarding `COC(=O)c1cnn2c(NC(C)C(C)(C)C)c(-c3ccc(F)cc3Cl)c(Cl)nc12` (centres unmarked) [CH(CH3)—C(CH3)3, H, 2-Cl-4-F-phenyl], the “log P” value is reported as 4.68.
As for `COC(=O)c1cnn2c(NC(C)C(C)(C)C)c(-c3c(F)cccc3Cl)c(Cl)nc12` (centres unmarked) [CH(CH3)—C(CH3)3, H, 2-Cl-6-F-phenyl], the “log P” value stood at 4.51.
Still for that read-out and setting: with `COC(=O)c1cnn2c(NC(C)C(C)(C)C)c(-c3ccccc3Cl)c(Cl)nc12` (centres unmarked) [CH(CH3)—C(CH3)3, H, 2-Cl-phenyl] the figure was 4.61.
Same read-out and setting: for `COC(=O)c1cnn2c(NC(C)C(C)(C)C)c(-c3ncncc3F)c(Cl)nc12` (centres unmarked) [CH(CH3)—C(CH3)3, H, 5-F-pyrimidin-4-yl] the value was 3.15.
As for `COC(=O)c1cnn2c(NC(C)C(C)C)c(-c3ccc(F)cc3Cl)c(Cl)nc12` (centres unmarked) [CH(CH3)—CH(CH3)2, H, 2-Cl-4-F-phenyl], the “log P” value stood at 4.31.
With `COC(=O)c1cnn2c(NC(C)C(C)C)c(-c3c(F)cccc3Cl)c(Cl)nc12` (centres unmarked) [CH(CH3)—CH(CH3)2, H, 2-Cl-6-F-phenyl], the lipophilicity (log P) was 4.12.
With `COC(=O)c1cnn2c(NC(C)C(C)C)c(-c3ccccc3Cl)c(Cl)nc12` (centres unmarked) [CH(CH3)—CH(CH3)2, H, 2-Cl-phenyl], the log partition coefficient (log P) is given as 4.21.

Staying with this data set, now noted: starting materials and intermediates, log P / log P*; read-out: log P.
In the case of `CC(C)Nc1c(-c2ccc(Cl)cc2Cl)c(Cl)nc2c(C(=O)O)cnn12` [5-Chloro-6-(2,4-dichlorophenyl)-7-isopropylaminopyrazolo[1,5-a]pyrimidine-3-carboxylic acid], the log p worked out at 3.3.

The same data set, now with this note: values marked *; HPLC, gradient method, acetonitrile/0.1% aqueous phosphoric acid, EEC Directive 79/831 Annex V. A8.
For the compound `CC(C)Nc1c(-c2ccc(F)cc2Cl)c(Cl)nc2c(C(=O)NS(C)(=O)=O)cnn12` [Example 351], the log p was 3.57*.
As to `CC(C)Nc1c(-c2ccccc2Cl)c(Cl)nc2c(C(=O)NS(C)(=O)=O)cnn12` [Example 357], the log p is listed as 3.44*.
As to `CC(C)Nc1c(-c2c(F)cc(Cl)cc2F)c(Cl)nc2c(C(=O)NS(C)(=O)=O)cnn12` [Example 381], the log p is on record as 3.68*.
With `CC(C)CNc1c(-c2c(F)cc(F)cc2F)c(Cl)nc2c(C(=O)NS(C)(=O)=O)cnn12` [Example 429], the log p was 3.59*.
Turning to `CC(C)CNc1c(-c2ccc(F)cc2Cl)c(Cl)nc2c(C(=O)NS(C)(=O)=O)cnn12` [Example 435], the log p was 3.82*.
`CC(C)CNc1c(-c2ccccc2Cl)c(Cl)nc2c(C(=O)NS(C)(=O)=O)cnn12` [Example 441]: the log p was 3.78*.
With `CC(C)CNc1c(-c2ccc(Cl)cc2Cl)c(Cl)nc2c(C(=O)NS(C)(=O)=O)cnn12` [Example 459], the log p is on record as 4.26*.
Take `CC(C)CNc1c(-c2c(F)cc(Cl)cc2F)c(Cl)nc2c(C(=O)NS(C)(=O)=O)cnn12` [Example 465]: the log p is listed as 3.97*.
Take `CC(C)(C)CNc1c(-c2c(F)cccc2Cl)c(Cl)nc2c(C(=O)NS(C)(=O)=O)cnn12` [Example 507]: the log p is 4.04*.
The same measure, in the same setting: with `CC(C)(C)CNc1c(-c2c(F)cc(F)cc2F)c(Cl)nc2c(C(=O)NS(C)(=O)=O)cnn12` [Example 513] the figure was 3.9*; with `CC(C)(C)CNc1c(-c2ccc(F)cc2Cl)c(Cl)nc2c(C(=O)NS(C)(=O)=O)cnn12` [Example 519], 4.19*.

Staying with this data set, now noted: values marked *; no footnote carries the single asterisk; general footnote: HPLC gradient method, acetonitrile/0.1% aqueous phosphoric acid.
`C[C@@H](Nc1c(-c2c(F)cccc2Cl)c(Cl)nc2c(C(=O)NS(C)(=O)=O)cnn12)C(C)(C)C` [Example 3]: the log p is listed as 4.19*.
For the compound `C[C@@H](Nc1c(-c2ccccc2Cl)c(Cl)nc2c(C(=O)NS(C)(=O)=O)cnn12)C(C)(C)C` [Example 21], the log p is reported as 4.36*.
On to `C[C@@H](Nc1c(-c2ccc(Cl)cc2Cl)c(Cl)nc2c(C(=O)NS(C)(=O)=O)cnn12)C(C)(C)C` [Example 39], for which the log p was 4.89*.
Consider `C[C@@H](Nc1c(-c2c(F)cc(Cl)cc2F)c(Cl)nc2c(C(=O)NS(C)(=O)=O)cnn12)C(C)(C)C` [Example 45], for which the log p was 4.55*.
For `CC(C)[C@@H](C)Nc1c(-c2c(F)cccc2Cl)c(Cl)nc2c(C(=O)NS(C)(=O)=O)cnn12` [Example 171], the log p is 3.9*.
Same read-out and setting: for `CC(C)[C@@H](C)Nc1c(-c2ccccc2Cl)c(Cl)nc2c(C(=O)NS(C)(=O)=O)cnn12` [Example 189] the value was 4.01*; for `CC(C)[C@@H](C)Nc1c(-c2c(F)cc(F)cc2Cl)c(Cl)nc2c(C(=O)NS(C)(=O)=O)cnn12` [Example 201], 4.05*.
Regarding `CC(C)[C@@H](C)Nc1c(-c2ccc(Cl)cc2Cl)c(Cl)nc2c(C(=O)NS(C)(=O)=O)cnn12` [Example 207], the log p is recorded as 4.55*.
Turning to `CC(C)[C@@H](C)Nc1c(-c2c(F)cc(Cl)cc2F)c(Cl)nc2c(C(=O)NS(C)(=O)=O)cnn12` [Example 213], the log p is reported as 4.24*.
As to `CC1CCN(c2c(-c3c(F)cccc3Cl)c(Cl)nc3c(C(=O)NS(C)(=O)=O)cnn23)CC1` [Example 255], the log p is reported as 4.2*.
Consider `CC1CCN(c2c(-c3c(F)cc(F)cc3F)c(Cl)nc3c(C(=O)NS(C)(=O)=O)cnn23)CC1` [Example 261], for which the log p is 4.07*.
Consider `CC1CCN(c2c(-c3c(F)cc(F)cc3Cl)c(Cl)nc3c(C(=O)NS(C)(=O)=O)cnn23)CC1` [Example 285], for which the log p is listed as 4.34*.

Staying with this data set, now noted: values printed without asterisk; EEC Directive 79/831 Annex V. A8, HPLC gradient method, acetonitrile/0.1% aqueous phosphoric acid (general footnote).
In turn, `C[C@@H](Nc1c(-c2c(F)cc(F)cc2F)c(Cl)nc2c(C(=O)NS(C)(=O)=O)cnn12)C(C)(C)C` [Example 9] came in with a log p of 4.16.
For `C[C@@H](Nc1c(-c2ccc(F)cc2Cl)c(Cl)nc2c(C(=O)NS(=O)(=O)C(F)(F)F)cnn12)C(C)(C)C` [Example 14], the log p stood at 3.77.
Consider `C[C@@H](Nc1c(-c2ccc(F)cc2Cl)c(Cl)nc2c(C(=O)NS(C)(=O)=O)cnn12)C(C)(C)C` [Example 15], for which the log p was found to be 4.44.
Turning to `C[C@@H](Nc1c(-c2c(F)cc(F)cc2Cl)c(Cl)nc2c(C(=O)NS(C)(=O)=O)cnn12)C(C)(C)C` [Example 33], the log p worked out at 4.38.
In turn, `C[C@@H](Nc1c(-c2ccc(Cl)cc2Cl)c(Cl)nc2c(C(=O)NS(=O)(=O)C(F)(F)F)cnn12)C(C)(C)C` [Example 38] gave a log p of 3.93.
`C[C@H](Nc1c(-c2ccc(Cl)cc2Cl)c(Cl)nc2c(C(=O)NS(C)(=O)=O)cnn12)C(F)(F)F` [Example 123]: the log p is 3.99.
With `CC(C)[C@@H](C)Nc1c(-c2ccc(F)cc2Cl)c(Cl)nc2c(C(=O)NS(C)(=O)=O)cnn12` [Example 183], the log p is 4.18.
